Measurements: US8993617B2, “Ire1alpha endonuclease specific inhibitor with cytotoxic activity” (The Board of Trustees of the Leland Stanford Junior …, priority 2010, dated 2015)

Tests used:
[1] = system: CD56 positive NK cells; assay: ex vivo cytotoxicity in peripheral blood NK cells (7-aminoactinomycin D); type: cell-based, human; conditions: average of UPN 9-15
Procedure: (§1) FIG. 2E is a line graph showing that STF-083010 is preferentially cytotoxic against human MM cells. MM cells were obtained by CD138+ selection from bone marrow samples from MM patients; lymphocytes were obtained by Ficoll density-gradient centrifugation of peripheral blood samples from control patients, followed by staining with anti CD3, anti CD19 and anti CD56 monoclonal antibodies to differentiate between T-, B- and NK cells. Cells were cultured with the indicated concentrations of STF-083010 for 24 h and cell viability was measured by flow cytometric analysis of Annexin V/Propidium Iodide (MM) or 7-aminoactinomycin D (peripheral blood lymphocytes) stained samples.
(§2) In order to determine anti-myeloma activity of STF-083010, first we treated a panel of MM cell lines with increasing concentrations of the compound in vitro and measured viability by trypan blue exclusion (FIG. 2C). […] Next, we treated RPMI8226 human MM cells grown as tumor xenografts in NSG mice. […] Additionally, we treated fresh CD138+ cells isolated from MM patients and compared the ex vivo toxicity to that of cells from 7 control patients (FIG. 2E, Tables 1,2).
(§3) Human specimen isolation and assays. Bone marrow aspirates were obtained from MM patients after obtaining informed consent according to institutional guidelines. […]

[2] = system: XBP1-luciferase reporter; assay: XBP1-luciferase bioluminescence in transgenic XBP1-luc mice; type: in vivo; conditions: i.p.
Procedure: FIG. 2A is a bar graph showing that STF-083010 blocks bortezomib-induced XBP1 activity in vivo. Transgenic XBP1-luc mice were injected i.p. with drug vehicle (16% chremophor), 1 mg/kg bortezomib, or 1 mg/kg bortezomib and 60 mg/kg STF-083010 and bioluminescence was measured after 24 h. […] Error bars show s.e.m. of at least 4 animals.
FIG. 2B is a set of images of representative mice before and after treatment.
(§4) Human specimen isolation and assays. Bone marrow aspirates were obtained from MM patients after obtaining informed consent according to institutional guidelines. CD138+ plasma cells were selected by positive magnetic bead selection (StemCell Technologies, Vancouver, Canada) either after isolation of nucleated cells (patients 1-4) or directly (patients 5-8). Peripheral blood cells were obtained by Ficoll-Hypaque density centrifugation from separate control patients. Cell culture, reporter assays, RT-PCR, Western blotting, and bioluminescent imaging.

[3] = system: sXBP1 protein; assay: sXBP1 protein production by immunoblotting in MM cell lines; type: cell-based, human; conditions: 300 μM Th and 60 μM STF-083010
Procedure: FIG. 1C is set of a gel electrophoresis images showing STF-083010 inhibiting the production of sXBP1 protein but not the auto-phosphorylation of Ire1α. The left panel indicates MM cell lines that were treated for the indicated times with 300 μM Th and 60 μM STF-083010 and sXBP1 protein was detected by immunoblotting.
(§5) To confirm the molecular target, we analyzed the effect of STF-083010 on endogenous XBP1 mRNA splicing levels in control and ER-stressed RPMI8226 human MM cells (FIG. 1B). […] To establish that this effect was due to a direct interaction between STF-083010 and Ire1α, we analyzed Ire1α enzymatic activity in a cell free system. STF-083010 blocked Ire1α's endonuclease activity (FIG. 1E), without affecting its kinase activity (FIG. 1F).
as §4

[4] = system: CD3 positive T cells; assay: ex vivo cytotoxicity in peripheral blood T cells (7-aminoactinomycin D); type: cell-based, human; conditions: average of UPN 9-15
Procedure: as §1, §2, §3

[5] = system: XBP1 mRNA splicing; assay: endogenous XBP1 mRNA splicing by RT-PCR in ER-stressed RPMI8226 cells; type: cell-based, human
Procedure: FIG. 1B is a gel electrophoresis image showing STF-083010 inhibiting endogenous XBP1 mRNA splicing. RPMI8226 cells were treated with 300 μM thapsigargin (Th), 60 μM STF-083010 or both for indicated amount of time and the relative XBP1 splicing was determined by RT-PCR. Solid arrow indicates the unspliced and broken arrow indicates the spliced form.
as §5, §4

[6] = target: T1, Ire1α (Homo sapiens, UniProt O75460); assay: Ire1α auto-phosphorylation by immunoblot in RPMI8226 cells; type: cell-based; conditions: 300 μM Th and 60 μM STF-083010
T1 construct: RPMI8226 cells were treated with 300 μM Th and 60 μM STF-083010; endogenous in cells; host or cells: RPMI8226 human multiple myeloma cells
T1 sequence (O75460 19-977): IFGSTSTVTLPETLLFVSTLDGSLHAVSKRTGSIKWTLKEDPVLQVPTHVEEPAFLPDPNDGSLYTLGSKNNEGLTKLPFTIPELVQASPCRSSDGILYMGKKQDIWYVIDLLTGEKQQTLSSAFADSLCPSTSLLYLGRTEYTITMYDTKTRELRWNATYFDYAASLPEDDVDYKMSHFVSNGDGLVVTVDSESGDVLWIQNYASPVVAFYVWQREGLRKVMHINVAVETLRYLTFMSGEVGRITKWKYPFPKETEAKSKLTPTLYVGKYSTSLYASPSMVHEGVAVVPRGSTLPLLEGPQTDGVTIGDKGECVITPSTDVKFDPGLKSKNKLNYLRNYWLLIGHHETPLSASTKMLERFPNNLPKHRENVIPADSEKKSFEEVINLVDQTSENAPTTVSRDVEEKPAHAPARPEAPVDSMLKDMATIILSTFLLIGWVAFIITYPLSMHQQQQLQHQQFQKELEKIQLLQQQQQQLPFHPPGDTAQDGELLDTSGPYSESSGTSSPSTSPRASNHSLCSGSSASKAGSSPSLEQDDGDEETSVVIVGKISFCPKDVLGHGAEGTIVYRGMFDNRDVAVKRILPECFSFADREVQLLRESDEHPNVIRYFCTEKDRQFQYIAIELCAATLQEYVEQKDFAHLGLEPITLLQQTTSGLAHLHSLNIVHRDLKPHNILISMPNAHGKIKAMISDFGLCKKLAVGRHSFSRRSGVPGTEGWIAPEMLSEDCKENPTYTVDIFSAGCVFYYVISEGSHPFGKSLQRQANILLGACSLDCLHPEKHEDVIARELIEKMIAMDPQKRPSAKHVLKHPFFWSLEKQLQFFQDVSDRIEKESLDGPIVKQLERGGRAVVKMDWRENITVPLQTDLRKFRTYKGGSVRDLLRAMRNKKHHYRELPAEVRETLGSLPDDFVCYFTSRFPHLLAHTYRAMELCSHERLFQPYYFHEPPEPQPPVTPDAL
Procedure: FIG. 1D is a set of gel electrophoresis images in which RPMI8226 cells were treated with 300 μM Th and 60 μM STF-083010 for the indicated times and the levels of phosphorylated and total Ire1α were detected using specific antibodies.

[7] = system: CD138+ multiple myeloma cells; assay: ex vivo cytotoxicity in CD138+ cells from MM patients (Annexin V/Propidium Iodide); type: cell-based, human
Excerpt: MM cells were obtained by CD138+ selection from bone marrow samples from MM patients; lymphocytes were obtained by Ficoll density-gradient centrifugation of peripheral blood samples from control patients, followed by staining with anti CD3, anti CD19 and anti CD56 monoclonal antibodies to differentiate between T-, B- and NK cells.
Next, we treated RPMI8226 human MM cells grown as tumor xenografts in NSG mice. […] Additionally, we treated fresh CD138+ cells isolated from MM patients and compared the ex vivo toxicity to that of cells from 7 control patients (FIG. 2E, Tables 1,2).
as §4

[8] = system: RPMI8226 MM cells; assay: RPMI8226 subcutaneous tumor xenografts in NOD/SCID/IL2Rγ null mice; type: in vivo; conditions: intraperitoneal, 30 mg/kg once weekly for 2 weeks (d1, d8)
Procedure: FIG. 2D is a line graph showing the antitumor activity of STF-083010 in vivo. RPMI8226 MM cells were established as subcutaneous tumor xenografts in NOD/SCID/IL2Rγ null mice. When tumors reached an average volume of 150 mm3, 2 groups of 5 mice each were treated with 30 mg/kg STF-083010 or drug vehicle once weekly for 2 weeks.
as §2

[9] = histology (H&E) of normal mouse tissues after treatment; type: in vivo; conditions: 60 mg/kg×1 and 30 mg/kg×2
Procedure: FIG. 3 is a set of images of the H&E stained sections of normal mouse tissues and RPMI8226 xenograft tumors treated with drug vehicle (16% chremophor in saline) or 30 mg/kg STF-083010 weekly for two weeks.

[10] = system: RPMI8226, MM.1S and MM.1R MM cells; assay: in vitro cytotoxicity in MM cell lines, trypan blue exclusion; type: cell-based, human; conditions: 0, 30 or 60 μM, viable cell number measured daily
Procedure: FIG. 2C is a set of line graphs showing in vitro cytotoxicity of STF-083010. RPMI8226, MM.1S and MM.1R MM cells that were treated with 0, 30 or 60 μM of STF-083010 and viable cell number was measured daily by the trypan blue exclusion method.
as §2

[11] = target: T2, hIre1α (Homo sapiens, UniProt O75460); assay: cell free Ire1α kinase activity (autophosphorylation, 32P-γATP); type: biochemical; conditions: 0-100 μM, 32P-γATP autophosphorylation
T2 construct: hIre1α protein containing both Ire1 cytoplasmic kinase and RNase domains; made in house
T2 sequence (O75460 465-977 limits assumed): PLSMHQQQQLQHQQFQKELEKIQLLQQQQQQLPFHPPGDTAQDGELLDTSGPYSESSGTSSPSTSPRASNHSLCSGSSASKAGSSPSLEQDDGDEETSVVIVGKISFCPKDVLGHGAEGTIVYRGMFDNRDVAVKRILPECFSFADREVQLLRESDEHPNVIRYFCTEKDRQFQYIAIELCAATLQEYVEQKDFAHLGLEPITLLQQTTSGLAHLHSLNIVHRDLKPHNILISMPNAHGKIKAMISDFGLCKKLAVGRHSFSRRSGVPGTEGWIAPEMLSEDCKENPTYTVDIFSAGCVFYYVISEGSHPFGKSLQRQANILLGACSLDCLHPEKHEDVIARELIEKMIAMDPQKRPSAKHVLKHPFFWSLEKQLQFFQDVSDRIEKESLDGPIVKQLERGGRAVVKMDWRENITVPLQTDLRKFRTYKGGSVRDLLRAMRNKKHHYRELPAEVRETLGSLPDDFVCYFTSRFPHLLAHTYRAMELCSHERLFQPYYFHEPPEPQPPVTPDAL
Procedure: FIG. 1F is a graph and gel that show the effect of STF-083010 on cell free Ire1α kinase activity, Upper: hIre1α was incubated with 32P-γATP and increasing concentrations (0-100 μM) of STF-083010. Ire1α autophosphorylation was analyzed by SDS-PAGE, followed by autoradiography to determine the amount of 32P incorporation (32P-hIRE). […] Error bars represent s.e.m. of 3 independent experiments.
Chemical library screening. The screen was performed in the Stanford High-Throughput Bioscience Center (HTBC). hIre1α protein containing both Ire1 cytoplasmic kinase and RNase domains was expressed and purified from baculovirus as described (Niwa M, Sidrauski C, Kaufman R J, Walter P. A role for presenilin-1 in nuclear accumulation of Ire1 fragments and induction of the mammalian unfolded protein response. Cell. 1999; 99:691-702). Autophosphorylation activity was determined with the addition of ^32P-γATP. Endonuclease activity was determined with the addition of radio-labeled HAC1 508 nt RNA substrate synthesized in vitro using α^32P-UTP (Nock S, Gonzalez T, Sidrauski C, Niwa M, Walter P. Purification and activity assays of the catalytic domains of the kinase/endoribonuclease Ire1p from Saccharomyces cerevisiae. Methods Enzymol. 2001; 342:3-10). […] Kinase activity and RNAse cleavage products were quantitated by PAGE and ^32P-γATP or ^32P-UTP autoradiography respectively.

[12] = target: T2, hIre1α; assay: cell free Ire1α RNase (endonuclease) activity, HAC1 mRNA cleavage; type: biochemical; conditions: hIre1 with 32P HAC1 508 nt transcript, 30 min, 1-100 μM; read-out: half-maximal inhibition of HAC1 mRNA processing
Procedure: FIG. 1E is a gel electrophoresis image and a line graph showing the STF-083010 effect on cell free Ire1α RNase (endonuclease) activity. […] HAC1 mRNA cleavage reaction was analyzed by separation of products on denaturing polyacrylamide gels, followed by autoradiography. The line graph is the quantitation of HAC1 mRNA processing showing half-maximal inhibition at approximately 25 μM. Error bars represent s.e.m. of 3 independent experiments.
Chemical library screening. […] Autophosphorylation activity was determined with the addition of ^32P-γATP. Endonuclease activity was determined with the addition of radio-labeled HAC1 508 nt RNA substrate synthesized in vitro using α^32P-UTP (Nock S, Gonzalez T, Sidrauski C, Niwa M, Walter P. Purification and activity assays of the catalytic domains of the kinase/endoribonuclease Ire1p from Saccharomyces cerevisiae. Methods Enzymol. 2001; 342:3-10). […] Kinase activity and RNAse cleavage products were quantitated by PAGE and ^32P-γATP or ^32P-UTP autoradiography respectively.

[13] = system: CD19 positive B cells; assay: ex vivo cytotoxicity in peripheral blood B cells (7-aminoactinomycin D); type: cell-based, human; conditions: average of UPN 9-15
Procedure: as §1, §2, §3

O=S(=O)(/N=C/c1c(O)ccc2ccccc12)c1cccs1 [STF-083010, (E)-N-((2-hydroxynaphthalen-1-yl)methylene)thiophene-2-sulfonamide]
LD50 (24 h) CD56 positive, AVERAGE [1]: 71.3 µM
XBP1-luciferase bioluminescent signal when injected with bortezomib ([2]; 1 mg/kg bortezomib and 60 mg/kg STF-083010, 24 h): no increase in bioluminescent signal
production of active sXBP1 protein [3]: inhibited production of active sXBP1 protein
LD50 (24 h) CD3 positive, AVERAGE [4]: 136.6 µM
XBP1 mRNA splicing induced by thapsigargin ([5]; RPMI8226 cells, 300 μM thapsigargin (Th), 60 μM STF-083010): almost completely blocked
XBP1 splicing activated by other types of ER stress ([5]; tunicamycin treatment, glucose deprivation or severe hypoxia (data not shown)): inhibited XBP1 splicing
Ire1α kinase activity, immunoblot of autophosphorylated Ire1α [6]: did not inhibit
LD50 24 h in multiple myeloma cells, AVERAGE ([7]; average of UPN 1-8): 27.8 µM
cytotoxicity to CD138+ cells compared to B (CD19+), T (CD3+), and NK (CD56+) cells ([7]; ex vivo, 24 h): selectively cytotoxic
growth of tumor xenografts [8]: significantly inhibited
histologic effects after treatment [9]: did not find any histologic effects
viability of MM cell lines [10]: cytostatic and cytotoxic activity in a dose- and time-dependent manner
Ire1α kinase activity during co-incubation [11]: no significant change
IC50 [12]: ~25 µM
LD50 (24 h) CD19 positive, AVERAGE [13]: 73.1 µM

CC(C)C[C@H](NC(=O)[C@H](Cc1ccccc1)NC(=O)c1cnccn1)B(O)O [bortezomib, reference compound]
XBP1-luciferase bioluminescent activity after bortezomib alone ([2]; 1 mg/kg bortezomib, 24 h): commensurate increase

C/C=C(/C)C(=O)O[C@H]1C(C)=C2[C@H]([C@@H]1OC(=O)CCCCCCC)[C@@](C)(OC(C)=O)C[C@H](OC(=O)CCC)[C@@]1(O)[C@H]2OC(=O)[C@@]1(C)O [thapsigargin, reference compound]
XBP1 splicing on incubation with thapsigargin alone ([5]; RPMI8226 cells, 300 μM thapsigargin): resulted in XBP1 splicing
